Measurements reported in patent US9326973B2, “Hepatitis C virus inhibitors” (priority 2012, dated 2016).

System: HCV replicon, genotype-1a variant with glutamine 30 changed to glutamate in the NS5A protein
Assay: microbe, parasite or virus in culture
Format: cell-based, HCV genotype 1a
Conditions: HCV replicon genotype 1a Q30E (Q→E) variant; test compound titrated with an NS5A-targeting compound (BMS-790052 fixed at 200 nM); ranking of synergist activity
Source text: The NS5A synergistic inhibitory effect of test compounds can be determined using various amounts of an NS5A-targeting compound with titration of a second compound of interest. […] In one embodiment, the HCV genotype strain can be genotype 1a containing a change at amino acid 30 of the NS5A protein consisting of glutamine to glutamate. The test compound can be chosen from compounds listed above or from others present in the literature.

SMILES | Fold-Synergistic 1a (Q30E)
CC(C)(C)OC(=O)N[C@]1(C(=O)N[C@H](c2nc(-c3ccc(-c4ccc(-c5c[nH]c([C@@H](NC(=O)[C@@]6(NC(=O)OC(C)(C)C)C[C@H]6C6CC6)C(C)(C)C)n5)cc4)cc3)c[nH]2)C(C)(C)C)C[C@H]1C1CC1 [Compound W-3] | >100 fold
CC(C)(C)[C@H](NC(=O)C(C)(C)C1(O)CCOCC1)c1nc(-c2ccc(-c3ccc(-c4c[nH]c([C@@H](NC(=O)C(C)(C)C5(O)CCOCC5)C(C)(C)C)n4)cc3)cc2)c[nH]1 [Compound P-158] | >100 fold
CC1(C(=O)N[C@H](c2nc(-c3ccc(-c4ccc(-c5c[nH]c([C@@H](NC(=O)C6(C)CCOCC6)C(C)(C)C)n5)cc4)cc3)c[nH]2)C(C)(C)C)CCOCC1 [Compound W-130] | >100 fold
COC(C)(C)C(=O)N[C@H](c1nc(-c2ccc(-c3ccc(-c4c[nH]c([C@@H](NC(=O)C(C)(C)OC)C5(C)CC5)n4)cc3)cc2)c[nH]1)C1(C)CC1 [Compound Y-63] | >100 fold
CC(C)(C)[C@H](NC(=O)C1(N2CCC(F)(F)CC2)COC1)c1nc(-c2ccc(-c3ccc(-c4c[nH]c([C@@H](NC(=O)C5(N6CCC(F)(F)CC6)COC5)C(C)(C)C)n4)cc3)cc2)c[nH]1 [Compound W-63] | >100 fold
CN(C(=O)C(=O)N[C@H](c1nc(-c2ccc(-c3ccc(-c4c[nH]c([C@@H](NC(=O)C(=O)N(C)C5CC5)C(C)(C)C)n4)cc3)cc2)c[nH]1)C(C)(C)C)C1CC1 [Compound W-50] | >100 fold
Cc1cn(CCC(=O)N2CCC[C@H]2c2ncc(-c3ccc(-c4ccc(-c5cnc([C@@H]6CCCN6C(=O)CCn6cc(C)c7ccccc76)[nH]5)cc4)cc3)[nH]2)c2ccccc12 [Compound S-153] | >10 fold
CC(C)(C)OC(=O)N1[C@@H]2CC2C[C@H]1C(=O)N[C@H](c1nc(-c2ccc(-c3ccc(-c4c[nH]c([C@@H](NC(=O)[C@@H]5CC6C[C@H]6N5C(=O)OC(C)(C)C)C(C)(C)C)n4)cc3)cc2)c[nH]1)C(C)(C)C (stereo partly drawn) [Compound W-67] | >100 fold
CC(C)(C)[C@H](NC(=O)C(F)(F)C1(O)CCOCC1)c1nc(-c2ccc(-c3ccc(-c4c[nH]c([C@@H](NC(=O)C(F)(F)C5(O)CCOCC5)C(C)(C)C)n4)cc3)cc2)c[nH]1 [Compound P-163] | >100 fold
COc1cccc(C2(C(=O)N[C@H](c3nc(-c4ccc(-c5ccc(-c6c[nH]c([C@@H](NC(=O)C7(c8cccc(OC)c8)CCC(C)CC7)C(C)(C)C)n6)cc5)cc4)c[nH]3)C(C)(C)C)CCC(C)CC2)c1 (stereo partly drawn) [Compound S-289] | >100 fold
CC(C)(C)C(=O)N[C@H](c1nc(-c2ccc(-c3ccc(-c4c[nH]c([C@@H](NC(=O)C(C)(C)C)C5CCCC5)n4)cc3)cc2)c[nH]1)C1CCCC1 [Compound N-44] | >100 fold
CC(C)(C)[C@H](NC(=O)[C@@H]1C[C@@H](F)CN1C(=O)C1CC1)c1nc(-c2ccc(-c3ccc(-c4c[nH]c([C@@H](NC(=O)[C@@H]5C[C@@H](F)CN5C(=O)C5CC5)C(C)(C)C)n4)cc3)cc2)c[nH]1 [Compound W-104] | >100 fold
O=C(c1cc2ccccc2[nH]1)N1CCC[C@H]1c1ncc(-c2ccc(-c3ccc(-c4cnc([C@@H]5CCCN5C(=O)c5cc6ccccc6[nH]5)[nH]4)cc3)cc2)[nH]1 [Compound S-120] | <10 fold
O=C(c1cccc2c1OCC2)N1CCC[C@H]1c1ncc(-c2ccc(-c3ccc(-c4cnc([C@@H]5CCCN5C(=O)c5cccc6c5OCC6)[nH]4)cc3)cc2)[nH]1 [Compound S-139] | >10 fold
CC(C)(C(=O)N[C@H](c1nc(-c2ccc(-c3ccc(-c4c[nH]c([C@@H](NC(=O)C(C)(C)C(=O)N5CC6CCC(C5)O6)C(C)(C)C)n4)cc3)cc2)c[nH]1)C(C)(C)C)C(=O)N1CC2CCC(C1)O2 [Compound W-145] | >10 fold
C[C@H]1CCN(C(=O)C(=O)N2CCC(F)(F)CC2)C1c1nc(-c2ccc(-c3ccc(-c4c[nH]c([C@@H]5[C@@H](C)CCN5C(=O)C(=O)N5CCC(F)(F)CC5)n4)cc3)cc2)c[nH]1 (stereo partly drawn) [Compound W-186] | >100 fold
CC(C)(C)[C@H](NC(=O)C(=O)N1CC[C@H](F)C1)c1nc(-c2ccc(-c3ccc(-c4c[nH]c([C@@H](NC(=O)C(=O)N5CC[C@H](F)C5)C(C)(C)C)n4)cc3)cc2)c[nH]1 [Compound W-27] | >100 fold
O=C(c1cc2ccccc2o1)N1CCC[C@H]1c1ncc(-c2ccc(-c3ccc(-c4cnc([C@@H]5CCCN5C(=O)c5cc6ccccc6o5)[nH]4)cc3)cc2)[nH]1 [Compound S-122] | >10 fold
O=C(c1ccccc1Oc1ccccc1)N1CCC[C@H]1c1ncc(-c2ccc(-c3ccc(-c4cnc([C@@H]5CCCN5C(=O)c5ccccc5Oc5ccccc5)[nH]4)cc3)cc2)[nH]1 [Compound S-114] | <10 fold
CC(C)(C)[C@H](NC(=O)C12CC3CC(CC(C3)C1)C2)c1nc(-c2ccc(-c3ccc(-c4c[nH]c([C@@H](NC(=O)C56CC7CC(CC(C7)C5)C6)C(C)(C)C)n4)cc3)cc2)c[nH]1 [Compound N-62] | >100 fold

SMILES | Fold-Synergistic 1a (Q30E)
O=C(c1cccc(Oc2ccccc2)c1)N1CCC[C@H]1c1ncc(-c2ccc(-c3ccc(-c4cnc([C@@H]5CCCN5C(=O)c5cccc(Oc6ccccc6)c5)[nH]4)cc3)cc2)[nH]1 [Compound S-116] | <10 fold
C[C@H]1CCN(C(=O)C(=O)N2CCC(F)(F)CC2)C1c1nc(-c2ccc(-c3ccc(-c4c[nH]c([C@@H]5[C@@H](C)CCN5C(=O)C(=O)N5CCC(F)(F)CC5)n4)cc3)cc2)c[nH]1 (stereo partly drawn) [Compound W-187] | >100 fold
O=C(c1csc(-c2cccnc2)n1)N1CCC[C@H]1c1ncc(-c2ccc(-c3ccc(-c4cnc([C@@H]5CCCN5C(=O)c5csc(-c6cccnc6)n5)[nH]4)cc3)cc2)[nH]1 [Compound S-130] | >10 fold
O=C(c1cncnc1)N1CCC[C@H]1c1ncc(-c2ccc(-c3ccc(-c4cnc([C@@H]5CCCN5C(=O)c5cncnc5)[nH]4)cc3)cc2)[nH]1 [Compound S-195] | <10 fold
O=C(c1ncc(Cl)c2ccccc12)N1CCC[C@H]1c1ncc(-c2ccc(-c3ccc(-c4cnc([C@@H]5CCCN5C(=O)c5ncc(Cl)c6ccccc56)[nH]4)cc3)cc2)[nH]1 [Compound S-200] | >100 fold
CC(C)CC(=O)N[C@@H](c1ccccc1)c1nc(-c2ccc(-c3ccc(-c4c[nH]c([C@@H](NC(=O)CC(C)C)c5ccccc5)n4)cc3)cc2)c[nH]1 [Compound P-5] | >100 fold
COC(=O)N[C@@H](C(=O)NC1(c2nc(-c3ccc(-c4ccc(-c5c[nH]c(C6(NC(=O)[C@H](NC(=O)OC)C(C)C)Cc7ccccc7C6)n5)cc4)cc3)c[nH]2)Cc2ccccc2C1)C(C)C [Compound N-17] | <10 fold
CC(C)(C)[C@H](NC(=O)CN1CCOC1=O)c1nc(-c2ccc(-c3ccc(-c4c[nH]c([C@@H](NC(=O)CN5CCOC5=O)C(C)(C)C)n4)cc3)cc2)c[nH]1 [Compound L-25] | >10 fold
CC(C)(C)[C@H](NC(=O)C12CCC(CC1)CO2)c1nc(-c2ccc(-c3ccc(-c4c[nH]c([C@@H](NC(=O)C56CCC(CC5)CO6)C(C)(C)C)n4)cc3)cc2)c[nH]1 [Compound Y-74] | >100 fold
CC(C)[C@H](NC(=O)c1cc(Cl)ccc1F)c1nc(-c2ccc3c(c2)Cc2cc(-c4c[nH]c([C@@H](NC(=O)c5cc(Cl)ccc5F)C(C)C)n4)ccc2-3)c[nH]1 [Compound N-73] | >100 fold
CC(C)(C)[C@H](NC(=O)C1(CO)CCCCO1)c1nc(-c2ccc(-c3ccc(-c4c[nH]c([C@@H](NC(=O)C5(CO)CCCCO5)C(C)(C)C)n4)cc3)cc2)c[nH]1 (stereo partly drawn) [Compound P-181] | >100 fold
COC(=O)N[C@@H](C(=O)N[C@@H](C)c1nc(-c2ccc(-c3ccc(-c4c[nH]c([C@H](C)NC(=O)[C@H](NC(=O)OC)C(C)C)n4)cc3)cc2)c[nH]1)C(C)C [Compound N-37] | >10 fold
CC(C)(C)[C@H](NC(=O)C(=O)N1CCC(C(F)(F)F)CC1)c1nc(-c2ccc(-c3ccc(-c4c[nH]c([C@@H](NC(=O)C(=O)N5CCC(C(F)(F)F)CC5)C(C)(C)C)n4)cc3)cc2)c[nH]1 [Compound W-60] | >100 fold
CC(C)(C)OC(=O)N1[C@@H]2CC[C@@H](C2)[C@H]1C(=O)N[C@H](c1nc(-c2ccc(-c3ccc(-c4c[nH]c([C@@H](NC(=O)[C@@H]5[C@H]6CC[C@H](C6)N5C(=O)OC(C)(C)C)C(C)(C)C)n4)cc3)cc2)c[nH]1)C(C)(C)C [Compound W-121] | >100 fold
O=C(C1CCC1)N1CCC[C@H]1c1ncc(-c2ccc(-c3ccc(-c4cnc([C@@H]5CCCN5C(=O)C5CCC5)[nH]4)cc3)cc2)[nH]1 [Compound S-162] | <10 fold
CC(C)(C)OC(=O)N1C[C@@H](O)C[C@H]1C(=O)N[C@H](c1nc(-c2ccc(-c3ccc(-c4c[nH]c([C@@H](NC(=O)[C@@H]5C[C@H](O)CN5C(=O)OC(C)(C)C)C(C)(C)C)n4)cc3)cc2)c[nH]1)C(C)(C)C [Compound W-98] | >100 fold
C[C@H]1C[C@H](C)OC(C)(C(=O)N[C@H](c2nc(-c3ccc(-c4ccc(-c5c[nH]c([C@@H](NC(=O)C6(C)O[C@@H](C)C[C@H](C)O6)C(C)(C)C)n5)cc4)cc3)c[nH]2)C(C)(C)C)O1 (stereo partly drawn) [Compound L-85] | >100 fold
CC(C)(NC1CCCCC1)C(=O)N[C@H](c1nc(-c2ccc(-c3ccc(-c4c[nH]c([C@@H](NC(=O)C(C)(C)NC5CCCCC5)C(C)(C)C)n4)cc3)cc2)c[nH]1)C(C)(C)C [Compound P-174] | >100 fold
CCCC(C)(C)C(=O)N1CCC[C@H]1c1ncc(-c2ccc(-c3ccc(-c4cnc([C@@H]5CCCN5C(=O)C(C)(C)CCC)[nH]4)cc3)cc2)[nH]1 [Compound S-190] | <10 fold
